In US8933029B2, “Antimicrobial and anti-inflammatory peptides” (Carrus Capital Corporation, priority 2001, dated 2015):
Marks after values point to notes of the source that are not given here. Ends that are not written are not given here.

Key:
TPA-induced ear edema = test: TPA ear edema model; settings: for Topical Dose (% change vs. vehicle) 0.1%: topical 0.1%; for Topical Dose (% change vs. vehicle) 0.1% / Topical Dose (% change vs. vehicle) 1.0% / Topical Dose (% change vs. vehicle) 5 0%: ear biopsy weight six hours after TPA; for Topical Dose (% change vs. vehicle) 1.0%: topical 1.0%; for Systemic Dose (% change vs. vehicle) 5 mg/kg: systemic 5 mg/kg
IFNγ = test: Inhibition of cytokine production in PHA-activated PBLs (ELISA); format: cell-based; settings: human PBLs, 10 μg/ml PHA, 48 hours, supernatant ELISA
Method: (§1) Briefly, human PBLs are collected from a subject and plated at 10^6 cells/ml in serum free lymphocyte growth medium, stimulated with 10 μg/ml phytohemagglutinin (PHA) in the presence or absence of the candidate peptide. The PBLs are incubated at 37° C. at 5% CO2 for 48 h, at which point the supernatants were collected. An ELISA is performed on the supernatants to detect a cytokine of interest (e.g., IL-1, TNF-α, IFN-γ) and the cells are incubated for another 72 h to measure proliferation (see, e.g., Sigusch et al., J. Periodontol. 69:1098, 1998).
(§2) Human peripheral blood lymphocytes (PBLs) were collected from a healthy adult […] and plated at 10^6 cells/ml in serum free lymphocyte growth media in a 96-well plate. The PBLs were stimulated with 10 μg/ml PHA in the presence or absence of test sample and incubated at 37° C. at 5% CO2 for 48 hours. Collected and pooled supernatants were stored at −20° C., then assayed with commercially available ELISA kits (Endogen and Biosource) and assayed for viability with LDH (Bochringer Mannheim). The cells remaining after supernatant removal were returned to the incubator and proliferation was determined at 72 hours by using AlamarBlue (Alamar Bioscience). Compounds were tested at 1, 10, 100 and 1000 μg/ml. The peptides were effective at inhibiting cytokine production and PBL proliferation (Table 4), which indicates these peptides can function as anti-inflammatory agents.

IL-10 = test: as above; format: cell-based; settings: human PBLs, 10 μg/ml PHA, 48 hours, supernatant ELISA
Method: as §1, §2

IL-12 = test: as above; format: cell-based; settings: human PBLs, 10 μg/ml PHA, 48 hours, supernatant ELISA
Method: as §1, §2

IL-1α = test: as above; format: cell-based; settings: human PBLs, 10 μg/ml PHA, 48 hours, supernatant ELISA
Method: as §1, §2

IL-2 = test: as above; format: cell-based; settings: human PBLs, 10 μg/ml PHA, 48 hours, supernatant ELISA
Method: as §1, §2

IL-4 = test: as above; format: cell-based; settings: human PBLs, 10 μg/ml PHA, 48 hours, supernatant ELISA
Method: as §1, §2

IL-6 = test: as above; format: cell-based; settings: human PBLs, 10 μg/ml PHA, 48 hours, supernatant ELISA
Method: as §1, §2

TNFα = test: as above; format: cell-based; settings: human PBLs, 10 μg/ml PHA, 48 hours, supernatant ELISA
Method: as §1, §2

[1] = test system: oxazolone contact hypersensitivity (ear inflammation); test: Oxazolone contact hypersensitivity model; format: in vivo, CD-1 mice; settings: Dosage of 0.1%, applied to ear one hour after oxazolone challenge, ear punch weight after 24 h, 70% EtOH/30% propylene glycol vehicle
Method: Briefly, a 3.0% (w/v) solution of oxazolone in acetone/corn oil (5:1) is applied topically to the skin on the shaved abdomens of mice of approximately the same weight and approximately the same age on day 0. […] Twenty-four hours later a dermal biopsy punch of the treated ear is taken and weighed.
CD-1 mice are treated with 3% oxazolone (Sigma) (30 mg/ml) in corn oil:acetone on a shaved abdomen. All solutions are sonicated for 7 minutes. Five days later, the mice are challenged with a 2% oxazolone (20 mg/ml) in acetone on the left ear, with the right ear being left untreated (control). One hour after challenge, the candidate peptide in a 70% EtOH/30% propylene glycol formulation (vehicle) was applied to the left ear, with the right ear being left untreated. After 24 h, 7 mm ear punches are taken from each ear of the mice. The ear punches are placed on a scale and the difference between the treated and untreated ears were compared. The percent inhibition of inflammation was calculated by comparing the mean of each treated group to the control group. The positive control is hydrocortisone (a known anti-inflammatory agent). Most of the indolicidin peptides inhibited inflammation as well as hydrocortisone.

[2] = formulated in 50% ethanol/5 mM lactate buffer (*)
[3] = topical 5.0%, formulated in 95% ethanol
[4] = topical 5 0%, formulated in 50% ethanol/5 mM lactate buffer (*)

Compound: R L W V W W V W (RLWVWWVW-{CN}) [Peptide 11F11CN]
- Topical Dose (% change vs. vehicle) 0.1% (TPA-induced ear edema; [2]): −49* %
- Topical Dose (% change vs. vehicle) 1.0% (TPA-induced ear edema; [2]): −75* %
- Topical Dose (% change vs. vehicle) 1.0% (TPA-induced ear edema; formulated in 95% ethanol): −87%

Compound: W R L L K L A L R L L K W (WRLLKLALRLLKW-{CN}) [Peptide 11J44CN]
- Systemic Dose (% change vs. vehicle) 5 mg/kg (TPA-induced ear edema): −32%
- Topical Dose (% change vs. vehicle) 1.0% (TPA-induced ear edema; formulated in 95% ethanol): −88%

Compound: H-RILRWVWRILR-CN (H-RILRWVWRILR-{CN}) [Peptide 11J115CN]
- Topical Dose (% change vs. vehicle) 0.1% (TPA-induced ear edema; formulated in 95% ethanol): −1%
- Topical Dose (% change vs. vehicle) 1.0% (TPA-induced ear edema; formulated in 95% ethanol): −57%

Compound: I L T W P W W P W T T T (ILTWPWWPWTTT-{CN}) [Peptide 11B24CN]
- Topical Dose (% change vs. vehicle) 1.0% (TPA-induced ear edema; formulated in 95% ethanol): −32%
- Topical Dose (% change vs. vehicle) 5 0% (TPA-induced ear edema; [3]): −64%

Compound: H-L(Orn)FL(Orn)W AF(Orn)L W(Orn)L-CN [Peptide 11J84CN]
- Topical Dose (% change vs. vehicle) 0.1% (TPA-induced ear edema; formulated in 95% ethanol): −14%
- Topical Dose (% change vs. vehicle) 1.0% (TPA-induced ear edema; formulated in 95% ethanol): −35%

Compound: A-ILTWPWWPWTTT-CN (not fully specified; N-terminal A, C-terminal nitrile/amide) [Peptide 11B24ACN]
- Topical Dose (% change vs. vehicle) 5 0% (TPA-induced ear edema; [3]): −75%

Compound: W (Orn) W W (Orn) P (Orn) W (Orn) W P (Orn) W [Peptide 11J67CN]
- Topical Dose (% change vs. vehicle) 1.0% (TPA-induced ear edema; [2]): −33* %
- Topical Dose (% change vs. vehicle) 5 0% (TPA-induced ear edema; [4]): −66* %

Compound: C[C@@H]1C[C@H]2[C@@H]3CCC4=CC(=O)C=C[C@]4(C)[C@@]3(F)[C@@H](O)C[C@]2(C)[C@@]1(O)C(=O)CO [Dexamethasone, dexamethasone, reference compound]
- Systemic Dose (% change vs. vehicle) 5 mg/kg (TPA-induced ear edema): >−80%
- Topical Dose (% change vs. vehicle) 0.1% (TPA-induced ear edema; [2]): >−90* %
- Topical Dose (% change vs. vehicle) 0.1% (TPA-induced ear edema; formulated in 95% ethanol): −92%

Compound: H-GWRFLKLAWRFLKLRR-OH [Peptide 11J136]
- Topical Dose (% change vs. vehicle) 0.1% (TPA-induced ear edema; formulated in 95% ethanol): −12%
- Topical Dose (% change vs. vehicle) 1.0% (TPA-induced ear edema; formulated in 95% ethanol): −54%

Compound: H-ILRWVWRIL-CN (H-ILRWVWRIL-{CN}) [Peptide 11J148CN]
- Topical Dose (% change vs. vehicle) 0.1% (TPA-induced ear edema; formulated in 95% ethanol): −33%
- Topical Dose (% change vs. vehicle) 1.0% (TPA-induced ear edema; formulated in 95% ethanol): −74%

Compound: H-LRFLKW(Aib)WRFLKL-CN [Peptide 11J105CN]
- Topical Dose (% change vs. vehicle) 0.1% (TPA-induced ear edema; formulated in 95% ethanol): −4%
- Topical Dose (% change vs. vehicle) 1.0% (TPA-induced ear edema; formulated in 95% ethanol): −51%

Compound: CC[C@H]1OC(=O)[C@H](C)[C@@H](O[C@H]2C[C@@](C)(OC)[C@@H](O)[C@H](C)O2)[C@H](C)[C@@H](O[C@@H]2O[C@H](C)C[C@H](N(C)C)[C@H]2O)[C@](C)(O)C[C@@H](C)C(=O)[C@H](C)[C@@H](O)[C@]1(C)O [Erythromycin, erythromycin, reference compound]
- Topical Dose (% change vs. vehicle) 0.1% (TPA-induced ear edema; [2]): −20* %
- Topical Dose (% change vs. vehicle) 1.0% (TPA-induced ear edema; [2]): −67* %
- Topical Dose (% change vs. vehicle) 5 0% (TPA-induced ear edema; [4]): −87* %

Compound: RLWVWWVWRR-NH2 [Peptide 11F17CN, R L W V W W V W R R]
- IC50 IFNγ (IFNγ): 93 µg/mL
- IC50 IL-10 (IL-10): 18 µg/mL
- IC50 IL-12 (IL-12): 120 µg/mL
- IC50 IL-1α (IL-1α): 45 µg/mL
- IC50 IL-2 (IL-2): >1000 µg/mL
- IC50 IL-4 (IL-4): 220 µg/mL
- IC50 IL-6 (IL-6): 500 µg/mL
- IC50 TNFα (TNFα): 70 µg/mL
- % Inhibition of Inflammation [1]: 71.60%

Compound: R L L V W W V L R R (RLLVWWVLRR-{CN}) [Peptide 11F82CN]
- Topical Dose (% change vs. vehicle) 1.0% (TPA-induced ear edema; formulated in 95% ethanol): −62%

Compound: RLWVWWVWRRK-NH2 [Peptide 11F12CN, R L W V W W V W R R K]
- IC50 IFNγ (IFNγ): 250 µg/mL
- IC50 IL-10 (IL-10): 30 µg/mL
- IC50 IL-12 (IL-12): 120 µg/mL
- IC50 IL-1α (IL-1α): 500 µg/mL
- IC50 IL-2 (IL-2): 570 µg/mL
- IC50 IL-4 (IL-4): 325 µg/mL
- IC50 IL-6 (IL-6): 140 µg/mL
- IC50 TNFα (TNFα): 68 µg/mL
- % Inhibition of Inflammation [1]: 86.50%
- Topical Dose (% change vs. vehicle) 1.0% (TPA-induced ear edema; formulated in 95% ethanol): −56%

Compound: W (Dab) W W (Dab) P (Dab) W (Dab) W P (Dab) W [Peptide 11J68CN]
- Topical Dose (% change vs. vehicle) 1.0% (TPA-induced ear edema; [2]): −55* %
- Topical Dose (% change vs. vehicle) 5 0% (TPA-induced ear edema; [4]): −85* %
